Measured values taken from the NIST ThermoML archive (doi:10.1016/j.tca.2004.11.015).

Settings: 101.33 kPa, Liquid, Vibrating tube method

NCCO [2-aminoethan-1-ol]
Settings	mass density [kg/m3]
281.15 K	1025.55
283.15 K	1023.99
285.15 K	1022.42
287.15 K	1020.84
289.15 K	1019.26
291.15 K	1017.68
293.15 K	1016.1
295.15 K	1014.52
297.15 K	1012.94
299.15 K	1011.35
301.15 K	1009.76
303.15 K	1008.17
305.15 K	1006.58
307.15 K	1004.99
309.15 K	1003.4
311.15 K	1001.8
313.15 K	1000.21
315.15 K	998.6
317.15 K	997
319.15 K	995.4
321.15 K	993.79
323.15 K	992.19
325.15 K	990.58
327.15 K	988.96
329.15 K	987.34
331.15 K	985.72
333.15 K	984.1
335.15 K	982.48
337.15 K	980.85
339.15 K	979.21
341.15 K	977.58
343.15 K	975.94
345.15 K	974.3
347.15 K	972.65
349.15 K	970.99
351.15 K	969.34
353.15 K	967.68

CO [methanol]
Settings	mass density [kg/m3]
283.15 K	800.67
288.15 K	795.99
293.15 K	791.29
298.15 K	786.58
303.15 K	781.86
308.15 K	777.1
313.15 K	772.32
318.15 K	767.52
323.15 K	762.67
328.15 K	757.77
333.15 K	752.83
